This is an account of results in patent publication US7429579B2, “Tetrahydrobenzazepine derivatives useful as modulators of dopamine D3 receptors (antipsychotic agents)” (SmithKline Beecham, PLC, priority 2000, dated 2008).

The structures appear in SMILES notation.

The assay deals with T1, dopamine D3 receptor (Homo sapiens, UniProt P35462).
T1 construct: expressed in transfected cells; host or cells: CHO cells (crude cell membranes)
T1 sequence (P35462 whole entry): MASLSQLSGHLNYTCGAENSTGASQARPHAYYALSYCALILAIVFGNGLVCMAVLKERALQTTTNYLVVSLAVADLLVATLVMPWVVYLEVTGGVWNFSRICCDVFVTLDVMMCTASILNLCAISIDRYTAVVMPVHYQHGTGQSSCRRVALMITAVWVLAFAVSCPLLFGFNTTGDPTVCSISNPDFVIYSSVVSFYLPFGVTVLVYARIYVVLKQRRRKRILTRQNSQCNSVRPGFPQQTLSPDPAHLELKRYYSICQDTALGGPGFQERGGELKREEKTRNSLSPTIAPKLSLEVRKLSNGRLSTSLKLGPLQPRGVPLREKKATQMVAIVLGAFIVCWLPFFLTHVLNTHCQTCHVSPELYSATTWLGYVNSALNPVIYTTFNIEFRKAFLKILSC
The experiment in a line: Binding experiments on cloned dopamine receptors: displacement of [125I]-Iodosulpride. The conditions noted are these: cloned human D3 receptor expressed in CHO cells, [125I]-Iodosulpride displacement; pKi accurate to about ±0.2-0.3. As to the method:
Binding Experiments on Cloned Dopamine (e.g. D2, D3 and D4) Receptors
Cultures were grown as monolayers or in suspension in standard cell culture media. Cells were recovered by scraping (from monolayers) or by centrifugation (from suspension cultures), and were washed two or three times by suspension in phosphate buffered saline followed by collection by centrifugation. Cell pellets were stored frozen at −80° C. Crude cell membranes were prepared by homogenisation followed by high-speed centrifugation, and characterisation of cloned receptors achieved by radioligand binding.
Preparation of Cho Cell Membranes: Cell Pellets were Gently Thawed at Room temperature, and resuspended in about 20 volumes of ice-cold Extraction buffer; 5 mM EDTA, 50 mM Trizma pre-set crystals (pH7.4@37° C.), 1 mM MgCl2, 5 mM KCl and 120 mM NaCl. The suspension was homogenised using an Ultra-Turrax at full speed for 15 seconds. The homogenate was centrifuged at 18,000 r.p.m for 15 min at 4° C. in a Sorvall RC5C centrifuge. Supernatant was discarded, and homogenate re-suspended in extraction buffer then centrifugation was repeated. The final pellet was resuspended in 50 mM Trizma pre-set crystals (pH 7.4 @ 37° C.) and stored in 1 ml aliquot tubes at −80° C. (D2=3.0E+08 cells, D3=7.0E+07 cells and D4=1.0E+08 cells).
The total volume is 0.2 ml and incubated in a water bath at 37° C. for 40 minutes. Following incubation, samples were filtered onto GF/B Unifilters using a Can berra Packard Filtermate, and washed four times with ice-cold 50 mM Trizma pre-set crystals (pH 7.4 @ 37° C.). The radioactivity on the filters was measured using a Canberra Packard Topcount Scintillation counter. […] For competition curves, 10 serial log concentrations of competing cold drug were used (Dilution range: 10 μM-10 pM). Competition curves were analysed using Inflexion, an iterative curve fitting programme in Excel. Results were expressed as pKi values where pKi=−log 10 [Ki].
In turn, `Cn1c(SCCCN2CCc3ccc(OS(C)(=O)=O)cc3CC2)nnc1-c1ccccc1` [Example 1, 3-{3-[(4-methyl-5-phenyl-4H-1,2,4-triazol-3-yl)thio]propyl}-2,3,4,5-tetrahydro-1H-3-benzazepin-7-yl methanesulfonate] showed a Ki of 0.316 to 10 nM.
The same measure for `CS(=O)(=O)c1ccc2c(c1)CCN(CCCSc1nc(-c3ccccc3)c(-c3ccccc3)[nH]1)CC2` [Example 5, 3-{3-[(4,5-diphenyl-1H-imidazol-2-yl)thio]propyl}-7-(methylsulfonyl)-2,3,4,5-tetrahydro-1H-3-benzazepine]: 0.316 to 10 nM; for `Cn1c(SCCCN2CCc3ccc(OS(C)(=O)=O)cc3CC2)nnc1-c1cccs1` [Example 8, 3-(3-{[4-methyl-5-(2-thienyl)-4H-1,2,4-triazol-3-yl]thio}propyl)-2,3,4,5-tetrahydro-1H-3-benzazepin-7-yl methanesulfonate]: 0.316 to 10 nM.
Under `Cn1c(SCCCN2CCc3ccc(OS(C)(=O)=O)cc3CC2)nnc1-c1ccc2ncccc2c1` [Example 13, 3-(3-{[4-methyl-5-(6-quinolinyl)-4H-1,2,4-triazol-3-yl]thio}propyl)-2,3,4,5-tetrahydro-1H-3-benzazepin-7-yl methanesulfonate] stands 0.316 to 10 nM.
Under `Cn1c(SCCCN2CCc3ccc(OS(C)(=O)=O)cc3CC2)nnc1-c1ccc(F)cc1` [Example 14, 3-(3-{[5-(4-fluorophenyl)-4-methyl-4H-1,2,4-triazol-3-yl]thio}propyl)-2,3,4,5-tetrahydro-1H-3-benzazepin-7-yl methanesulfonate] stands 0.316 to 10 nM.
`CS(=O)(=O)Oc1ccc2c(c1)CCN(CCCSc1nc(-c3ccccc3)c(-c3ccccc3)[nH]1)CC2` [Example 22, 3-{3-[(4,5-diphenyl-1H-imidazol-2-yl)thio]propyl}-2,3,4,5-tetrahydro-1H-3-benzazepin-7-yl methanesulfonate] gave a Ki of 0.316 to 10 nM.
Under `Cn1c(SCCCN2CCc3ccc(S(=O)(=O)N4CCOCC4)cc3CC2)nnc1-c1ccc2ncccc2c1` [Example 51, 3-(3-{[4-methyl-5-(6-quinolinyl)-4H-1,2,4-triazol-3-yl]thio}propyl)-7-(4-morpholinylsulfonyl)-2,3,4,5-tetrahydro-1H-3-benzazepine] stands 0.316 to 10 nM; under `Cc1cnc(-c2ccc3c(c2)CCN(CCCSc2nnc(-c4ccc5ncccc5c4)n2C)CC3)o1` [Example 61, 7-(5-methyl-1,3-oxazol-2-yl)-3-(3-{[4-methyl-5-(6-quinolinyl)-4H-1,2,4-triazol-3-yl]thio}propyl)-2,3,4,5-tetrahydro-1H-3-benzazepine], 0.316 to 10 nM.
The same measure for `Cc1cc(-c2ccc3c(c2)CCN(CCCSc2nnc(-c4ccc5ncccc5c4)n2C)CC3)no1` [Example 63, 7-(5-methyl-3-isoxazolyl)-3-(3-{[4-methyl-5-(6-quinolinyl)-4H-1,2,4-triazol-3-yl]thio}propyl)-2,3,4,5-tetrahydro-1H-3-benzazepine]: 0.316 to 10 nM; for `Cn1c(SCCCN2CCc3ccc(S(=O)(=O)c4ccccc4)cc3CC2)nnc1-c1ccc(F)cc1F` [Example 67, 3-(3-{[5-(2,4-difluorophenyl)-4-methyl-4H-1,2,4-triazol-3-yl]thio}propyl)-7-(phenylsulfonyl)-2,3,4,5-tetrahydro-1H-3-benzazepine]: 0.316 to 10 nM; for `Cn1c(SCCCN2CCc3ccc(S(=O)(=O)N4CCOCC4)cc3CC2)nnc1-c1ccc(F)cc1F` [Example 70, 3-(3-{[5-(2,4-difluorophenyl)-4-methyl-4H-1,2,4-triazol-3-yl]thio}propyl)-7-(4-morpholinylsulfonyl)-2,3,4,5-tetrahydro-1H-3-benzazepine]: 0.316 to 10 nM.
The same measure for `Cn1c(SCCCN2CCc3ccc(S(C)(=O)=O)cc3CC2)nnc1-c1cc2ccccc2[nH]1` [Example 72, 3-(3-{[5-(1H-indol-2-yl)-4-methyl-4H-1,2,4-triazol-3-yl]thio}propyl)-7-(methylsulfonyl)-2,3,4,5-tetrahydro-1H-3-benzazepine]: 0.316 to 10 nM; for `Cn1c(SCCCN2CCc3ccc(S(C)(=O)=O)cc3CC2)nnc1-c1ccc2c(ccn2C)c1` [Example 74, 3-(3-{[4-methyl-5-(1-methyl-1H-indol-5-yl)-4H-1,2,4-triazol-3-yl]thio}propyl)-7-(methylsulfonyl)-2,3,4,5-tetrahydro-1H-3-benzazepine]: 0.316 to 10 nM.
For the molecule `CCS(=O)(=O)c1ccc2c(c1)CCN(CCCSc1nnc(-c3cc4ccccc4s3)n1C)CC2` [Example 91, 3-(3-{[5-(1-benzothien-2-yl)-4-methyl-4H-1,2,4-triazol-3-yl]thio}propyl)-7-(ethylsulfonyl)-2,3,4,5-tetrahydro-1H-3-benzazepine], the Ki was 0.316 to 10 nM.
As for `CCS(=O)(=O)c1ccc2c(c1)CCN(CCCSc1nnc(-c3cc4ccccc4[nH]3)n1C)CC2` [Example 93, 7-(ethylsulfonyl)-3-(3-{[5-(1H-indol-2-yl)-4-methyl-4H-1,2,4-triazol-3-yl]thio}propyl)-2,3,4,5-tetrahydro-1H-3-benzazepine], the Ki is 0.316 to 10 nM.
The same measure for `CCS(=O)(=O)c1ccc2c(c1)CCN(CCCSc1nnc(-c3cc4ccccc4o3)n1C)CC2` [Example 95, 3-(3-{[5-(1-benzofuran-2-yl)-4-methyl-4H-1,2,4-triazol-3-yl]thio}propyl)-7-(ethylsulfonyl)-2,3,4,5-tetrahydro-1H-3-benzazepine]: 0.316 to 10 nM.
Regarding `CCS(=O)(=O)c1ccc2c(c1)CCN(CCCSc1nnc(-c3cccc4occc34)n1C)CC2` [Example 96, 3-(3-{[5-(1-benzofuran-4-yl)-4-methyl-4H-1,2,4-triazol-3-yl]thio}propyl)-7-(ethylsulfonyl)-2,3,4,5-tetrahydro-1H-3-benzazepine], the Ki was 0.316 to 10 nM.
With `CCS(=O)(=O)c1ccc2c(c1)CCN(CCCSc1nnc(-c3cc4ccccc4n3C)n1C)CC2` [Example 99, 7-(ethylsulfonyl)-3-(3-{[4-methyl-5-(1-methyl-1H-indol-2-yl)-4H-1,2,4-triazol-3-yl]thio}propyl)-2,3,4,5-tetrahydro-1H-3-benzazepine], the Ki was 0.316 to 10 nM.
`CCS(=O)(=O)c1ccc2c(c1)CCN(CCCSc1nnc(-c3cccc4ccoc34)n1C)CC2` [Example 100, 3-(3-{[5-(1-benzofuran-7-yl)-4-methyl-4H-1,2,4-triazol-3-yl]thio}propyl)-7-(ethylsulfonyl)-2,3,4,5-tetrahydro-1H-3-benzazepine] had a Ki of 0.316 to 10 nM.
The molecule `Cc1cc(-c2ccc3c(c2)CCN(CCCSc2nnc(-c4ccc5ncccc5c4)n2C)CC3)on1` [Example 126, 7-(3-methyl-5-isoxazolyl)-3-(3-{[4-methyl-5-(6-quinolinyl)-4H-1,2,4-triazol-3-yl]thio}propyl)-2,3,4,5-tetrahydro-1H-3-benzazepine] had a Ki of 0.316 to 10 nM.
`Cc1cc(-c2ccc3c(c2)CCN(CCCSc2nnc(-c4ccc(F)cc4F)n2C)CC3)no1` [Example 131, 3-(3-{[5-(2,4-difluorophenyl)-4-methyl-4H-1,2,4-triazol-3-yl]thio}propyl)-7-(5-methyl-3-isoxazolyl)-2,3,4,5-tetrahydro-1H-3-benzazepine] gave a Ki of 0.316 to 10 nM.
The same measure for `Cc1cc(-c2ccc3c(c2)CCN(CCCSc2nnc(-c4ccc(F)c5ncccc45)n2C)CC3)no1` [Example 135, 3-(3-{[5-(8-fluoro-5-quinolinyl)-4-methyl-4H-1,2,4-triazol-3-yl]thio}propyl)-7-(5-methyl-3-isoxazolyl)-2,3,4,5-tetrahydro-1H-3-benzazepine]: 0.316 to 10 nM; for `Cc1ccc2c(-c3nnc(SCCCN4CCc5ccc(-c6cc(C)on6)cc5CC4)n3C)ccc(F)c2n1` [Example 137, 3-(3-{[5-(8-fluoro-2-methyl-5-quinolinyl)-4-methyl-4H-1,2,4-triazol-3-yl]thio}propyl)-7-(5-methyl-3-isoxazolyl)-2,3,4,5-tetrahydro-1H-3-benzazepine]: 0.316 to 10 nM; for `Cc1cc(-c2ccc3c(c2)CCN(CCCSc2nnc(-c4ccc5cnccc5n4)n2C)CC3)no1` [Example 146, 7-(5-methyl-3-isoxazolyl)-3-(3-{[4-methyl-5-(1,6-naphthyridin-2-yl)-4H-1,2,4-triazol-3-yl]thio}propyl)-2,3,4,5-tetrahydro-1H-3-benzazepine]: 0.316 to 10 nM.
The same measure for `Cc1ccc2cc(-c3nnc(SCCCN4CCc5ccc(-c6ncc(C)o6)cc5CC4)n3C)ccc2n1` [Example 168, 3-(3-{[4-methyl-5-(2-methyl-6-quinolinyl)-4H-1,2,4-triazol-3-yl]thio}propyl)-7-(5-methyl-1,3-oxazol-2-yl)-2,3,4,5-tetrahydro-1H-3-benzazepine]: 0.316 to 10 nM; for `CCn1c(SCCCN2CCc3ccc(-c4ncc(C)o4)cc3CC2)nnc1-c1ccc2ncccc2c1` [Example 169, 3-(3-{[4-ethyl-5-(6-quinolinyl)-4H-1,2,4-triazol-3-yl]thio}propyl)-7-(5-methyl-1,3-oxazol-2-yl)-2,3,4,5-tetrahydro-1H-3-benzazepine]: 0.316 to 10 nM.
